From patent US6440954B1, “Inhibition of vascular smooth muscle cell proliferation” (President and Fellows of Harvard College, priority 1997, dated 2002)

Columns and labels:
[1] = test system: cyclin A, E, B and D1 mRNAs in RASMCs; experiment: Northern analysis of cyclin mRNAs in RASMCs; type: cell-based, rat; conditions: 24 h after treatment, FIG. 4
Method: Total RNA from RASMCs was prepared from cultured RASMCs by guanidinium isothiocyanate extraction and centrifugation through cesium chloride. […] RNA samples (20 μg/lane) were electrophoresed on 1.3% formaldehyde-agarose gel, and then transferred onto nitrocellulose filters. The filters were hybridized to ^32P-labeled human cyclin probes as described (Lee et al., J. Biol. Chem. 266, 16188-16192 (1991); Lee et al., J. Biol Chem. 269, 12032-12039 (1994)). To normalize RNA content of each lane, the filters were washed at 80° C. in 50% formamide solution to remove the cyclin probes, and then hybridized with oligonucleotide probes for 28S RNA. Hybridized filters were washed in 30 mM NaCl, 3 mM sodium citrate, and 0.1% sodium dodecyl sulfate at 55° C. Radioactive signals were visualized on Kodak XAR film or PhosphorImager screens (Molecular Dynamics, Inc. Sunnyvale, Calif.).

RASMCs [2] = experiment: [3H]thymidine incorporation in RASMCs; type: cell-based, rat
Method: (§1) RASMCs were harvested from the thoracic aortas of adult male Sprague-Dawley rats (200-250 g) by enzymatic dissociation as described (Tsai et al., Proc. Natl. Acad. Sci. USA 91, 6369-6373 (1994)). The cells were grown in DMEM supplemented with 10% FCS, penicillin (100 U/ml), streptomycin (100 μg/ml), glutamine ([…]), and 25 mM Hepes (pH 7.4) in a humidified incubator (37° C., 5% CO2). HASMCs (Clonetics, San Diego) were grown in M199 medium (GIBCO BRL, Grand Island, N.Y.) supplemented with 20% FCS, penicillin (100 U/ml), streptomycin (100 μg/ml), and 25 mM Hepes (pH 7.4). Cells from passages 5-9 were used. RASMCs and HASMCs were cultured in 24-well plates containing an appropriate growth medium (DMEM plus 10% FCS for RASMCs, and M199 plus 20% FCS for HASMCs). After the cells had grown to 70-80% confluence, they were rendered quiescent by incubation for 72 h in DMEM (for RASMCs) or M199 (for HASMCs) containing 0.4% charcoal/dextran-treated FCS (FIGS. 2a and 2d) or 0.4% calf serum (CS) (FIGS. 2b and 2c). Phenol red-free DMEM was used in the experiments with estradiol (FIG. 2a). […] After incubation, the cells were washed with Dulbecco's PBS, fixed in cold 10% TCA for at least 2 h, and then washed with 95% ethanol. Incorporated [^3H]thymidine was extracted in 0.2 N NaOH and measured in a liquid scintillation counter.

HASMCs = experiment: [3H]thymidine incorporation in HASMCs; type: cell-based, human; conditions: quiescent HASMCs, 24 h incubation, FIG. 2d
Method: as §1

RASMCs [3] = experiment: Cell counting (RASMC proliferation); type: cell-based, rat; conditions: FIG. 3b
Method: RASMCs (2×10^4) were seeded onto 6-well plates and grown in DMEM supplemented with 10% FCS. […] Medium and progesterone were changed daily. Cells were counted in a Coulter apparatus at various times after their removal from the plates with trypsin-EDTA.

With `CC(=O)[C@H]1CC[C@H]2[C@@H]3CCC4=CC(=O)CC[C@]4(C)[C@H]3CC[C@]12C` [progesterone] the “cyclin A mRNA level” value [1] was “downregulated”, the “cyclin B mRNA level” value [1] was “did not change” and the “cyclin D1 mRNA level” value [1] was “did not change”. The “cyclin E mRNA level” value [1] was “downregulated”, the “effect of serum (FCS) concentration on progesterone-induced inhibition of [3H]thymidine incorporation” value (RASMCs [2]; RASMCs, progesterone 500 nM, FIG. 2c) was “counteracted by serum in a dose-dependent manner” and the “effect on [3H]thymidine incorporation in RASMCs” value (RASMCs [2]; quiescent RASMCs, 24 h incubation, FIG. 2a/2b) was “inhibited”. The “effect on [3H]thymidine incorporation in HASMCs” value (HASMCs) was “dose-dependent inhibition” and the “reduction in RASMC cell growth, dose dependence” value (RASMCs [3]) was “dose-dependent”.
